In one test the target is TTR/Aβ(12–28) complex (Homo sapiens, UniProt P02766). The experiment in a line: ITC, ternary complex: [TTR + stabilizer] titrated with Aβ. The format is binding. As to conditions: compared with TTR + Aβ(12–28) without stabilizer.
The next test has as its target TTR/Aβ(1–42) complex (Homo sapiens, UniProt P02766). Described as above. It is filed as binding. As to conditions: compared with TTR/Aβ(1–42) without stabilizer.
In the next test the target is TTR (Homo sapiens, UniProt P02766). The experiment in a line: ITC, binary complex TTR + Aβ peptide. It is filed as binding. To be noted: thermograms of binary complexes; HEPES/glycine pH 7.4, 5% DMSO, 25 °C.
For another test, the system named is mice model of AD. To be noted: in vivo administration; cited from earlier work.

“Also recorded” adds a separate entry of the source.

For the compound `O=C(O)c1cc(-c2ccc(F)cc2F)ccc1O` [Diflunisal, 5-(2,4-difluorophenyl)-2-hydroxy-benzoic acid], at TTR/Aβ(12–28) complex (listed as diflunisal (1)), the “effect of the stabilizer on the TTR/Aβ(12–28) complex (in words)” value (from here on “effect of the stabilizer”) is recorded as “do not enhance the TTR/Aβ interaction; also recorded: negligible”. Further, on TTR/Aβ(1–42) complex, the “chaperoning effect on the TTR/Aβ(1–42) interaction (in words)” value (“chaperoning effect” for short) is recorded as “chaperoning effect could not be observed”.
Consider Y EVHHQ KLVFF [Aβ(10–20) (6)], for which, at TTR, the “interaction with TTR by ITC (in words)” value was “very low enthalpy change”.
In the case of `O=C(O)c1ccc2nc(-c3cc(Cl)cc(Cl)c3)oc2c1` [Tafamidis, 2-(3,5-dichlorophenyl)-1,3-benzoxazole-6-carboxylic acid], at TTR/Aβ(12–28) complex (listed as Tafamidis (2)), the “effect of the stabilizer” value is on record as “do not enhance the TTR/Aβ interaction; also recorded: negligible”. Besides, at TTR/Aβ(1–42) complex (listed as Tafamidis (2)), the “chaperoning effect” value is on record as “negligible effect; also recorded: chaperoning effect could not be observed; also recorded: not detected”.
Regarding `O=C(O)c1cc(-c2ccc(F)cc2F)cc(I)c1O` [IDIF, 2',4'-difluoro-4-hydroxy-5-iodo-1,1'-biphenyl-3-carboxylic acid], the “effect in AD mice (brain Aβ, cognition)” value with mice model of AD is “decrease in brain Aβ levels and deposition”. At TTR/Aβ(12–28) complex, the “effect of the stabilizer” value is “stabilizing”. The “chaperoning effect” value at TTR/Aβ(1–42) complex is on record as “cooperative effect”.
As to DAEFR HDSGY E [Aβ(1–11) (5)], the “interaction with TTR by ITC (in words)” value on TTR is reported as “no significant interaction”.
In the case of EDVG SNKGA IIGLM [Aβ(25–35) (8)], at TTR, the “interaction with TTR by ITC (in words)” value was “no significant interaction”.

The values above are taken from article PMC7115756 (Journal of Medicinal Chemistry, 2020).
